Literature values in paper PMC6328430, “Radiation dosimetry of [^68Ga]PSMA-11 in low-risk prostate cancer patients” (EJNMMI Physics, 2019).

Conditions: cited from earlier work

C[N+](C)(C[18F])CCO [[^18F]Choline]
Effective dose: 0.01 mSv/MBq
